# Test results from patent publication US20260356840A1, “[1,2,4]TRIAZOLO[1,5-A]PYRIMIDINONE WRN INHIBITORS” (Nimbus Wadjet, Inc., priority 2023, published 2026).
# Molecular target: T1, human Werner helicase (Uniprot Q14191, amino acids 517-1235 with L1074F point mutation), WRN-BV08 (Homo sapiens, UniProt Q14191, L1074F)
# T1 construct: Uniprot Q14191, amino acids 517-1235 with L1074F point mutation; TEV cleavable 8xHis tag (C, cleaved yes); made in house; host or cells: Sf9 insect cells (baculovirus, pFastBac)
# T1 sequence (Q14191 517-1235 L1074F): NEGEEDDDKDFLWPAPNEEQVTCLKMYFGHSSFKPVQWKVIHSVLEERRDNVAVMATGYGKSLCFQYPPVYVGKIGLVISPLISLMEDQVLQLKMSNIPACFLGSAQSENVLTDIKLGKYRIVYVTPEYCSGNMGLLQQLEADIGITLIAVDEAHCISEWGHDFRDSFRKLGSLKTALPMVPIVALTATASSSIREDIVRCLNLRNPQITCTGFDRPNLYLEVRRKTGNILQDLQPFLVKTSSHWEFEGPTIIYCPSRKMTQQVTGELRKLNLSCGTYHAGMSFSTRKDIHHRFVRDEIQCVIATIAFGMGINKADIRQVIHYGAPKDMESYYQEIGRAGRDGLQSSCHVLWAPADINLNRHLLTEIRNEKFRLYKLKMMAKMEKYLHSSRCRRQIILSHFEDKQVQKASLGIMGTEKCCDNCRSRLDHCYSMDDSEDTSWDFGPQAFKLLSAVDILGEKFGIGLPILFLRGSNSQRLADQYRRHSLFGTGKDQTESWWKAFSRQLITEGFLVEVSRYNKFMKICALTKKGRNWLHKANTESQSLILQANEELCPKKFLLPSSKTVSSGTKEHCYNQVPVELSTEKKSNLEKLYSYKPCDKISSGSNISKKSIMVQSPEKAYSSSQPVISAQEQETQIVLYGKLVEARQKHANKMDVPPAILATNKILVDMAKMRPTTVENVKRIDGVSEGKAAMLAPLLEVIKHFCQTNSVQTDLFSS
# Assay: WRN (BV08) ADP-Glo Assay
# Format: biochemical
# Experimental: DNA duplex was synthesized at BGI (Shenzhen, China) and was composed of strand 1 with the sequence 5′-[…]-3′ (SEQ ID NO.: 1) and strand 2 with the sequence 5′-[…]-3′ (SEQ ID NO.: 2). DNA strands were annealed by heating to 95 °C for 5 minutes followed by slow cooling to room temperature. […] DMSO (0.1 μl) was added to columns 12, rows A-H and column 24, rows I-P for the maximum signal control.
# Where RLU=relative luminescence units, sample=signal in sample well, and MIN and MAX are the respective minimum and maximum signal controls. • Four-parameter IC50 fit equation:
# Y=Bottom+(Top−Bottom)/(1+(IC50/X)^Hill Slope)
# Where top and bottom are normally allowed to float but may be fixed at 100 or 0 respectively in a 3-parameter fit. Y is the % inhibition and X is the compound concentration.
# Molecular Biology and virus production. […] The baculovirus from the expression plasmid WRN-BV08 was generated from transfection and amplification following the manufacturer's instructions.
# Sf9 cells grown in SF900II media were infected with 1:200 WRN-BV08 P2 virus and incubated for protein expression for 72 h at 27 °C. The WRN protein was purified using the following protocol. The cell pellets were thawed and resuspended in buffer A (50 mM Tris, pH 7.5, 500 mM NaCl, 1 mM TCEP, 10% Glycerol) supplemented with 0.5% CHAPS, 1 mM [COMPOUND LEFT OUT], 1 μg/ml Leupeptin, 1 μg/ml Pepstatin, and the Pierce Universal Nuclease and cocktail tablet. Cleared lysates were loaded onto a Ni Sepharose™ excel column and washed with buffer A and bound protein was eluted with buffer A supplemented with 300 mM imidazole. The eluted protein was dialyzed against buffer A and digested by His-tagged TEV (1:5 ratio) overnight at 4 °C. […] Untagged WRN protein was eluted from the column with buffer A supplemented with 20 mM imidazole, dialyzed overnight into buffer B (50 mM Tris, pH 7.5, 1 mM TCEP, 10% Glycerol) supplemented with 150 mM NaCl and loaded onto a Heparin column. Proteins were eluted with a step gradient of buffer B supplemented with 150 mM, 200 mM, 300 mM and 500 mM NaCl.
row,SMILES,IC50
1,"CCc1c(N2CCN(C(=O)c3ncnc(C)c3O)CC2)c(=O)n2nc(-c3cnn(C4CC4)c3)nc2n1CC(=O)Nc1ccc(C(F)(F)F)cc1Cl [Compound I-32, N-[2-chloro-4-(trifluoromethyl)phenyl]-2-[2-(1-cyclopropyl-1H-pyrazol-4-yl)-5-ethyl-6-[4-(5-hydroxy-6-methylpyrimidine-4-carbonyl)piperazin-1-yl]-7-oxo-4H,7H-[1,2,4]triazolo[1,5-a]pyrimidin-4-yl]acetamide]",5 to 50 nM
2,"CCc1c(N2CCN(C(=O)c3nn(C)cc3O)CC2)c(=O)n2nc(C3=CCOCC3)nc2n1CC(=O)Nc1ccc(C(F)(F)F)cc1Cl [Compound I-12, N-[2-chloro-4-(trifluoromethyl)phenyl]-2-[2-(3,6-dihydro-2H-pyran-4-yl)-5-ethyl-6-[4-(4-hydroxy-1-methyl-1H-pyrazole-3-carbonyl)piperazin-1-yl]-7-oxo-4H,7H-[1,2,4]triazolo[1,5-a]pyrimidin-4-yl]acetamide]",5 to 50 nM
3,"CCc1c(N2CCN(C(=O)CCO)CC2)c(=O)n2nc(C3=CCOCC3)nc2n1CC(=O)Nc1ccc(C(F)(F)F)cc1Cl [Compound I-24, N-[2-chloro-4-(trifluoromethyl)phenyl]-2-[2-(3,6-dihydro-2H-pyran-4-yl)-5-ethyl-6-[4-(3-hydroxypropanoyl)piperazin-1-yl]-7-oxo-4H,7H-[1,2,4]triazolo[1,5-a]pyrimidin-4-yl]acetamide]",5 to 50 nM
4,"CCc1c(N2CCN(C(=O)c3nnn[nH]3)CC2)c(=O)n2nc(C3=CCOCC3)nc2n1CC(=O)Nc1ccc(C(F)(F)F)cc1Cl [Compound I-17, N-[2-chloro-4-(trifluoromethyl)phenyl]-2-[2-(3,6-dihydro-2H-pyran-4-yl)-5-ethyl-7-oxo-6-[4-(1H-1,2,3,4-tetrazole-5-carbonyl)piperazin-1-yl]-4H,7H-[1,2,4]triazolo[1,5-a]pyrimidin-4-yl]acetamide]",5 to 50 nM
5,"CCc1c(N2CCN(C(=O)c3ccnc(OC)c3O)CC2)c(=O)n2nc(C3=CCOCC3)nc2n1CC(=O)Nc1ccc(C(F)(F)F)cc1Cl [Compound I-34, N-[2-chloro-4-(trifluoromethyl)phenyl]-2-[2-(3,6-dihydro-2H-pyran-4-yl)-5-ethyl-6-[4-(3-hydroxy-2-methoxypyridine-4-carbonyl)piperazin-1-yl]-7-oxo-4H,7H-[1,2,4]triazolo[1,5-a]pyrimidin-4-yl]acetamide]",5 to 50 nM

# More lines, now with the values ahead:
row,IC50,SMILES
1,5 to 50 nM,"CCc1c(N2CCN(C(=O)c3ncc4c(c3O)OCC4)CC2)c(=O)n2nc(C3=CCOCC3)nc2n1CC(=O)Nc1ccc(C(F)(F)F)cc1Cl [Compound I-83, N-[2-chloro-4-(trifluoromethyl)phenyl]-2-[2-(3,6-dihydro-2H-pyran-4-yl)-5-ethyl-6-(4-{7-hydroxy-2H,3H-furo[3,2-c]pyridine-6-carbonyl}piperazin-1-yl)-7-oxo-4H,7H-[1,2,4]triazolo[1,5-a]pyrimidin-4-yl]acetamide]"
2,5 to 50 nM,"CCc1c(N2CCN(C(=O)c3ncnn3C)CC2)c(=O)n2nc(-c3ccnc(OC)c3)nc2n1CC(=O)Nc1ccc(C(F)(F)F)cc1Cl [Compound I-79, N-[2-chloro-4-(trifluoromethyl)phenyl]-2-[5-ethyl-2-(2-methoxypyridin-4-yl)-6-[4-(1-methyl-1H-1,2,4-triazole-5-carbonyl)piperazin-1-yl]-7-oxo-4H,7H-[1,2,4]triazolo[1,5-a]pyrimidin-4-yl]acetamide]"
3,5 to 50 nM,"CCc1c(N2CCN(C(=O)c3cnn(C)c3)CC2)c(=O)n2nc(-c3ccnc(OC)n3)nc2n1CC(=O)Nc1ccc(C(F)(F)F)cc1Cl [Compound I-64, N-[2-chloro-4-(trifluoromethyl)phenyl]-2-[5-ethyl-2-(2-methoxypyrimidin-4-yl)-6-[4-(1-methyl-1H-pyrazole-4-carbonyl)piperazin-1-yl]-7-oxo-4H,7H-[1,2,4]triazolo[1,5-a]pyrimidin-4-yl]acetamide]"
